Reference: ChEMBL document CHEMBL4665893, “Scalable Synthesis, In Vitro cccDNA Reduction, and In Vivo Antihepatitis B Virus Activity of a Phosphonomethoxydeoxythreosyl Adenine Prodrug” (J Med Chem, 2020)
pEC50, pIC50: −log10 of the molar value. Calls of active or inactive are those of the source. The rule behind the calls is not given here.

Columns and labels:
Hepatitis B virus [1] = test: Antiviral activity against adenovirus AdH294-WT harboring wild-type HBV genotype D accession #V01460 infected in human HepG2 cells assessed as reduction in viral replicative intermediate DNAs incubated for 5 days by Southern blot analysis; format: functional, organism-based; settings: genotype D accession #V01460, HepG2, 120 h
Hepatitis B virus [2] = test: Antiviral activity against ETV-resistant and adenovirus AdH294-7LR harboring wild-type HBV infected in human HepG2 cells assessed as reduction in viral replicative intermediate DNAs at 4 to 1000 nM incubated for 5 days by Southern blot analysis; format: functional, organism-based; settings: time 5.0 day
Hepatitis B virus [3] = test: Antiviral activity against ETV-resistant and adenovirus AdH294-7LR harboring wild-type HBV infected in human HepG2 cells assessed as viral replicative intermediate DNA level at 4 nM incubated for 5 days by Southern blot analysis (reference value: 100%); format: functional; settings: time 5 day
Hepatitis B virus [4] = test: Antiviral activity against ETV-resistant and adenovirus AdH294-7LR harboring wild-type HBV infected in human HepG2 cells assessed as viral replicative intermediate DNA level at 13 nM incubated for 5 days by Southern blot analysis (reference value: 100%); format: functional; settings: time 5 day
Hepatitis B virus [5] = test: Antiviral activity against ETV-resistant and adenovirus AdH294-7LR harboring wild-type HBV infected in human HepG2 cells assessed as viral replicative intermediate DNA level at 40 nM incubated for 5 days by Southern blot analysis (reference value: 100%); format: functional; settings: time 5 day
Hepatitis B virus [6] = test: Antiviral activity against ETV-resistant and adenovirus AdH294-7LR harboring wild-type HBV infected in human HepG2 cells assessed as viral replicative intermediate DNA level at 120 nM incubated for 5 days by Southern blot analysis (reference value: 100%); format: functional; settings: time 5 day
Hepatitis B virus [7] = test: Antiviral activity against ETV-resistant and adenovirus AdH294-7LR harboring wild-type HBV infected in human HepG2 cells assessed as viral replicative intermediate DNA level at 370 nM incubated for 5 days by Southern blot analysis (reference value: 100%); format: functional; settings: time 5 day
Hepatitis B virus [8] = test: Antiviral activity against ETV-resistant and adenovirus AdH294-7LR harboring wild-type HBV infected in human HepG2 cells assessed as viral replicative intermediate DNA level at 1100 nM incubated for 5 days by Southern blot analysis (reference value: 100%); format: functional; settings: time 5 day
Hepatitis B virus [9] = test: Antiviral activity against ETV-resistant and adenovirus AdH294-7LR harboring wild-type HBV infected in human HepG2 cells assessed as viral replicative intermediate DNA level at 3300 nM incubated for 5 days by Southern blot analysis (reference value: 100%); format: functional; settings: time 5 day
Hepatitis B virus [10] = test: Antiviral activity against ETV-resistant and adenovirus AdH294-7LR harboring wild-type HBV infected in human HepG2 cells assessed as viral replicative intermediate DNA level at 10000 nM incubated for 5 days by Southern blot analysis (reference value: 100%); format: functional; settings: time 5 day
Hepatitis B virus [11] = test: Antiviral activity against adenovirus AdH294-WT harboring wild-type HBV genotype D accession #V01460 infected in human HepG2 cells assessed as reduction in viral replicative intermediate DNA level at 4 nM incubated for 5 days by Southern blot analysis (reference value: 100%); format: functional; set-up: scale not given: the % may be the effect or the level left; settings: time 5 day
Hepatitis B virus [12] = test: Antiviral activity against adenovirus AdH294-WT harboring wild-type HBV genotype D accession #V01460 infected in human HepG2 cells assessed as reduction in viral replicative intermediate DNA level at 13 nM incubated for 5 days by Southern blot analysis (reference value: 100%); format: functional; set-up: scale not given: the % may be the effect or the level left; settings: time 5 day
Hepatitis B virus [13] = test: Antiviral activity against adenovirus AdH294-WT harboring wild-type HBV genotype D accession #V01460 infected in human HepG2 cells assessed as reduction in viral replicative intermediate DNA level at 40 nM incubated for 5 days by Southern blot analysis (reference value: 100%); format: functional; set-up: scale not given: the % may be the effect or the level left; settings: time 5 day
Hepatitis B virus [14] = test: Antiviral activity against adenovirus AdH294-WT harboring wild-type HBV genotype D accession #V01460 infected in human HepG2 cells assessed as reduction in viral replicative intermediate DNA level at 120 nM incubated for 5 days by Southern blot analysis (reference value: 100%); format: functional; set-up: scale not given: the % may be the effect or the level left; settings: time 5 day
Hepatitis B virus [15] = test: Antiviral activity against adenovirus AdH294-WT harboring wild-type HBV genotype D accession #V01460 infected in human HepG2 cells assessed as reduction in viral replicative intermediate DNA level at 370 nM incubated for 5 days by Southern blot analysis (reference value: 100%); format: functional; set-up: scale not given: the % may be the effect or the level left; settings: time 5 day
Hepatitis B virus [16] = test: Antiviral activity against adenovirus AdH294-WT harboring wild-type HBV genotype D accession #V01460 infected in human HepG2 cells assessed as reduction in viral replicative intermediate DNA level at 1100 nM incubated for 5 days by Southern blot analysis (reference value: 100%); format: functional; set-up: scale not given: the % may be the effect or the level left; settings: time 5 day
Hepatitis B virus [17] = test: Antiviral activity against adenovirus AdH294-WT harboring wild-type HBV genotype D accession #V01460 infected in human HepG2 cells assessed as reduction in viral replicative intermediate DNA level at 3300 nM incubated for 5 days by Southern blot analysis (reference value: 100%); format: functional; set-up: scale not given: the % may be the effect or the level left; settings: time 5 day
Hepatitis B virus [18] = test: Antiviral activity against adenovirus AdH294-WT harboring wild-type HBV genotype D accession #V01460 infected in human HepG2 cells assessed as reduction in viral replicative intermediate DNA level at 10000 nM incubated for 5 days by Southern blot analysis (reference value: 100%); format: functional; set-up: scale not given: the % may be the effect or the level left; settings: time 5 day
Hepatitis B virus [19] = test: Antiviral activity against HBV infected in human HepDE19 cells assessed as reduction in HBV cccDNA incubated for 9 days by qPCR analysis; format: functional, organism-based; settings: HepDE19, 216 h
[20] = Toxicity in human HepDE19 cells assessed as reduction in beta-actin level incubated for 9 days by qPCR analysis; format: cell-based; settings: time 9 day
[21] = Selectivity index, […] against HBV infected in human HepDE19 cells to CC50 for toxicity in human HepDE19 cells; format: cell-based; settings: read-out: Ratio CC50/IC50
[22] = Plasma concentration in C57BL/6 mouse at 6 mg/kg, po administered as single dose after 0.25 to 24 hrs by LC/MS/MS analysis; format: ADME, organism-based; settings: in vivo, time 0.25-24 hrs
Hepatitis B virus [23] = test: Antiviral activity against HBV infected hydrodynamic injection C57BL/6 mouse model assessed as reduction in serum HBV DNA level at 0.6 to 60 mg/kg, po QD for 6 days by qPCR analysis; format: functional, organism-based; settings: dose mg/kg 0.6-60, time 6.0 day
[24] = Toxicity in HBV infected hydrodynamic injection C57BL/6 mouse model assessed as effect on body weight at 0.6 to 60 mg/kg, po QD for 6 days; format: organism-based; settings: in vivo, 144 h, dose 0.6-60 mg/kg, time 6 day
[25] = Toxicity in C57BL/6 mouse assessed as induction of mortality at 60 mg/kg, po for 14 days; format: organism-based; settings: in vivo, 336 h, time 14 day
[26] = Toxicity in C57BL/6 mouse assessed as induction of functional deficit at 60 mg/kg, po for 14 days; format: organism-based; settings: in vivo, 336 h, time 14 day
[27] = Toxicity in C57BL/6 mouse assessed as induction of body weight loss at 60 mg/kg, po for 14 days relative to control; format: organism-based; settings: in vivo, 336 h, time 14 day
[28] = Toxicity in C57BL/6 male mouse assessed as reduction in food consumption loss at 60 mg/kg, po for 11 days relative to control; format: organism-based; settings: in vivo, 264 h, time 11 day
[29] = Toxicity in C57BL/6 male mouse assessed as increase in neutrophils level at 60 mg/kg, po for 14 days by hematology analysis; format: organism-based; settings: in vivo, 336 h, time 14 day
[30] = Toxicity in C57BL/6 male mouse assessed as reduction in erythrocytes level at 60 mg/kg, po for 14 days by hematology analysis; format: organism-based; settings: in vivo, 336 h, time 14 day
[31] = Toxicity in C57BL/6 male mouse assessed as reduction in hemoglobin level at 60 mg/kg, po for 14 days by hematology analysis; format: organism-based; settings: in vivo, 336 h, time 14 day
[32] = Toxicity in C57BL/6 male mouse assessed as reduction in hematocrit level at 60 mg/kg, po for 14 days by hematology analysis; format: organism-based; settings: in vivo, 336 h, time 14 day
[33] = Toxicity in C57BL/6 male mouse assessed as reduction in mean corpuscular volume level at 60 mg/kg, po for 14 days by hematology analysis; format: organism-based; settings: in vivo, 336 h, time 14 day
[34] = Toxicity in C57BL/6 male mouse assessed as reduction in lymphocytes level at 60 mg/kg, po for 14 days by hematology analysis; format: organism-based; settings: in vivo, 336 h, time 14 day
[35] = Toxicity in C57BL/6 male mouse assessed as effect on clinical chemistry level at 60 mg/kg, po for 14 days; format: organism-based; settings: in vivo, 336 h, time 14 day
[36] = Toxicity in C57BL/6 female mouse assessed as effect on clinical chemistry level at 60 mg/kg, po for 14 days; format: organism-based; settings: in vivo, 336 h, time 14 day
[37] = Toxicity in C57BL/6 male mouse assessed as increase in LDL-C level at 60 mg/kg, po for 14 days; format: organism-based; settings: in vivo, 336 h, time 14 day
[38] = Toxicity in C57BL/6 female mouse assessed as effect on organ weight level at 60 mg/kg, po for 14 days; format: organism-based; settings: in vivo, 336 h, time 14 day
[39] = Toxicity in C57BL/6 male mouse assessed as effect on organ weight level at 60 mg/kg, po for 14 days; format: organism-based; settings: in vivo, 336 h, time 14 day
[40] = Toxicity in C57BL/6 female mouse assessed as increase in thymus weight level at 60 mg/kg, po for 14 days; format: organism-based; settings: in vivo, 336 h, time 14 day
[41] = Genotoxicity in Salmonella typhimurium at 1 uM by Ames test; format: toxicity; settings: salmonella enterica subsp. enterica serovar typhimurium
[42] = Genotoxicity in Salmonella typhimurium TA98 assessed as increase in number of spontaneous revertants colonies by Ames test; format: toxicity; settings: salmonella enterica subsp. enterica serovar typhimurium, 1 µM
[43] = Genotoxicity in Salmonella typhimurium TA100 assessed as increase in number of spontaneous revertants colonies by Ames test; format: toxicity; settings: salmonella enterica subsp. enterica serovar typhimurium, 1 µM
[44] = Genotoxicity in Salmonella typhimurium TA1535 assessed as increase in number of spontaneous revertants colonies by Ames test; format: toxicity; settings: salmonella enterica subsp. enterica serovar typhimurium, 1 µM
[45] = Genotoxicity in Salmonella typhimurium TA1537 assessed as increase in number of spontaneous revertants colonies by Ames test; format: toxicity; settings: salmonella enterica subsp. enterica serovar typhimurium, 1 µM
[46] = Toxicity in C57BL/6 female mouse assessed as increase in neutrophils level at 60 mg/kg, po for 14 days by hematology analysis; format: organism-based; settings: in vivo, 336 h, time 14 day
[47] = Toxicity in C57BL/6 female mouse assessed as reduction in erythrocytes level at 60 mg/kg, po for 14 days by hematology analysis; format: organism-based; settings: in vivo, 336 h, time 14 day
[48] = Toxicity in C57BL/6 female mouse assessed as reduction in hemoglobin level at 60 mg/kg, po for 14 days by hematology analysis; format: organism-based; settings: in vivo, 336 h, time 14 day
[49] = Toxicity in C57BL/6 female mouse assessed as reduction in hematocrit level at 60 mg/kg, po for 14 days by hematology analysis; format: organism-based; settings: in vivo, 336 h, time 14 day
[50] = Toxicity in C57BL/6 female mouse assessed as reduction in mean corpuscular volume level at 60 mg/kg, po for 14 days by hematology analysis; format: organism-based; settings: in vivo, 336 h, time 14 day
[51] = Toxicity in C57BL/6 female mouse assessed as reduction in lymphocytes level at 60 mg/kg, po for 14 days by hematology analysis; format: organism-based; settings: in vivo, 336 h, time 14 day

CC(C)CCOC(=O)C[C@H](NP(=O)(CO[C@H]1CO[C@@H](n2cnc3c(N)ncnc32)C1)Oc1ccccc1)C(=O)OCCC(C)C (mixture of isomers)
pEC50 (Hepatitis B virus [1]): > 8.40
Activity (Hepatitis B virus [2]): Active
Activity (Hepatitis B virus [3]): 98.2%
Activity (Hepatitis B virus [4]): 101.5%
Activity (Hepatitis B virus [5]): 59.1%
Activity (Hepatitis B virus [6]): 38.5%
Activity (Hepatitis B virus [7]): 20.2%
Activity (Hepatitis B virus [8]): 18.1%
Activity (Hepatitis B virus [9]): 11.7%
Activity (Hepatitis B virus [10]): 5.9%
Activity (Hepatitis B virus [11]): 39.1%
Activity (Hepatitis B virus [12]): 22.4%
Activity (Hepatitis B virus [13]): 12.9%
Activity (Hepatitis B virus [14]): 7.5%
Activity (Hepatitis B virus [15]): 1.8%
Activity (Hepatitis B virus [16]): 0.7%
Activity (Hepatitis B virus [17]): 0%
Activity (Hepatitis B virus [18]): 0%
pIC50 (Hepatitis B virus [19]): 8.22
IC90 (Hepatitis B virus [19]; time 9 day): 70 nM
CC50 at 216 h [20]: 230 nM
selectivity ratio [21]: 37
Cp [22]: < 1.01 ng/mL
Activity (Hepatitis B virus [23]): Active
Activity [24]: Non-Toxic
Activity [25]: Non-Toxic
Activity [26]: Non-Toxic
Activity [27]: 4%
Activity [28]: Toxic
Activity [29]: Toxic
Activity [30]: Toxic
Activity [31]: Toxic
Activity [32]: Toxic
Activity [33]: Toxic
Activity [34]: Toxic
Activity [35]: Non-Toxic
Activity [36]: Non-Toxic
Activity [37]: Toxic
Activity [38]: Non-Toxic
Activity [39]: Non-Toxic
Activity [40]: Toxic
Activity [41]: Non-Toxic
Activity [42]: Non-Toxic
Activity [43]: Non-Toxic
Activity [44]: Non-Toxic
Activity [45]: Non-Toxic
Activity [46]: Non-Toxic
Activity [47]: Non-Toxic
Activity [48]: Non-Toxic
Activity [49]: Non-Toxic
Activity [50]: Non-Toxic
Activity [51]: Non-Toxic
